# Source: US20080299076A1, “Compunds and compositions that cause non-apoptotic cell death and uses thereof” (priority 2006, published 2008)
# pIC50, pKd: −log10 of the molar value.
# How the values were obtained:
# [1] = test system: BJ-TERT/LT/ST/RAS^V12 cells; assay: Cell death, viable cells counted using a hemacytometer; format: cell-based, human; settings: 13 μM erastin A1, 23 μM antimycin, 126 μM 2-methoxyestradiol or the combinations
# [2] = test system: BJ-TERT/LT/ST/RAS^V12 cells; assay: Suppression of erastin-induced cell death (suppressor screen and follow-up); format: cell-based, human; settings: co-treatment with erastin
# [3] = test system: PARP1; assay: PARP1 cleavage (western blot); format: cell-based, human; settings: BJ-TERT/LT/ST/RAS^V12 cells; staurosporine 1 μM 6 h, camptothecin 1 μM 18 h, erastin 20 μg/mL
# Method: BJ-TERT/LT/ST/RAS^V12 tumor cells were seeded in six-well dishes, incubated overnight at 37° C. with 5% CO2 and were treated with nothing (NT), staurosporine (ST, 1 μM) for 6 h, camptothecin (C, 1 μM) for 18 h, or erastin (20 μg/mL) for the indicated time, lysed and analyzed by western blot with an anti-PARP1 antibody. A relatively high concentration of erastin was used to ensure loss of PARP cleavage was not due to a concentration-dependent effect.
# BJ-TERT/LT/ST/RAS^V12 cells were seeded in polystyrene 100×20 mm dishes (Falcon/#353003) in 10 ml of media. Three million cells were seeded in each dish. After overnight incubation at 37° C. with 5% CO2, BJ-TERT/LT/ST/RAS^V12 cells were treated with nothing, staurosporine (1 μM) for 6 h, camptothecin (1 μM) for 18 h or erastin (20 μg/mL) for 6, 10, 12, 12.5, 13, 14, 18 or 26 h, and prepared for western blotting.
# [4] = test system: cytochrome c; assay: Cytochrome c release from mitochondria; format: cell-based, human; settings: BJ-TERT/LT/ST/RAS^V12 cells; staurosporine 1 μM or erastin 20 μg/mL, 6 h
# Method: BJ-TERT/LT/ST/RAS^V12 cells were seeded in polystyrene 100×20 mm dishes in 10 ml media. After overnight incubation at 37° C. with 5% CO2, the cells were treated with nothing (NT), staurosporine (ST, 1 μM) or erastin (20 μg/mL) for 6 h, washed with 10 mL ice-cold PBS and lysed by passage through a 25-gauge needle (five strokes). Cell lysates were centrifuged at 1850 rpm for 5 min at 4° C. to remove the nuclear fraction. Mitochondria were removed from the soluble cytosolic fraction by pelleting at 10,000 rpm. Supernatant and mitochondrial pellets were solubilized in SDS-PAGE loading buffer and analyzed by western blot using anti-cytochrome c and pan-VDAC antibodies and IR-dye-linked secondary antibodies. VDACs are mitochondrial proteins, so their absence in the cytosolic lane indicates effective separation of cytosol (C) from mitochondria (M). Fluorescence was detected on a LI-COR Odyssey infrared scanner.
# For the cytochrome c release assay, cells were washed with 10 mL of ice-cold PBS, suspended in 120 μL of buffer (300 mM sucrose, 0.1% BSA, 10 mM HEPES, pH 7.5, 10 mM KCl, 1.5 mM MgCl2, 1 mM EGTA, 1 mM EDTA, 1 mM dithiothreitol, 2 mM phenylmethanesulfonyl fluoride and 1 protease inhibitor tablet (Roche)) and incubated on ice for 15 min. […] Supernatant and mitochondrial pellets were solubilized in SDS-PAGE loading buffer and analyzed by western blotting.
# [5] = biological target: T1, murine VDAC3 (Mus musculus, UniProt Q60931); assay: NADH oxidation assay in mitochondria from yeast expressing VDAC3; format: biochemical; settings: mitochondria from yeast expressing VDAC3 in place of yeast VDAC
# T1 construct: expressed in transfected cells; host or cells: yeast (S. cerevisiae) with murine VDAC3 in place of yeast VDAC; isolated mitochondria
# T1 sequence (Q60931 1-283): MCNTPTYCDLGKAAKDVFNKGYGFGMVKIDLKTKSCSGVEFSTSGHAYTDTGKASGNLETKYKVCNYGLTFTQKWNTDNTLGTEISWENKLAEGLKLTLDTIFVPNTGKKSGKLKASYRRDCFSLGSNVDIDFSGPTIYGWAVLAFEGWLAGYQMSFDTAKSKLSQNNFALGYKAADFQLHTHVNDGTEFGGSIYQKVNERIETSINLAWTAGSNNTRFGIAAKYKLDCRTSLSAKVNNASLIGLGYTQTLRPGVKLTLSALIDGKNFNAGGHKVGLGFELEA
# Method: In certain embodiments, mitochondria can be purified from yeast that had been engineered to express murine or human VDAC3 in place of yeast VDAC.
# Mitochondria were isolated from yeast expressing murine VDAC3 in place of yeast VDAC. The rate of NADH oxidation by an inner membrane NADH dehydrogenase was determined by measuring the change in NADH absorbance over time. Mitochondria with a disrupted outer membrane show an increased rate of NADH oxidation (red, shocked) compared to untreated mitochondria (green).
# NADH oxidation in the mitochondria was measured by resuspending mitochondria isolated from yeast in R-buffer (0.65 M sucrose, 10 mM HEPES (pH 7.5), 10 mM KH2PO4, 5 mM KCl, 5 mM, MgCl2) to a final concentration of 100 μg/ml. Mitochondrial concentration was measured by dissolving mitochondria in 0.6% SDS and reading absorbance at 280 nm. The mitochondrial suspension was then incubated with 25 μM NADH, and the absorbance at 340 nm monitored over a 15 minute period. The assay was repeated in the presence of erastin. To assess mitochondrial intactness, a parallel assay was run in which mitochondria were hypotonically shocked prior to addition of NADH. The mitochondrial pellet was resuspended in dH2O and incubated on ice for 3 minutes to disrupt the outer mitochondrial membrane. 2× R-buffer was then added to restore normal osmotic conditions.
# [6] = biological target: T2, VDAC2 (Homo sapiens, UniProt P45880); assay: VDAC2 binding assay (competition with radiolabelled erastin A9); settings: competition with tritium-labeled erastin A9
# T2 construct: hexahistidine (pET-15b, thrombin site) (N); made in house; host or cells: E. coli
# T2 sequence (P45880 1-294): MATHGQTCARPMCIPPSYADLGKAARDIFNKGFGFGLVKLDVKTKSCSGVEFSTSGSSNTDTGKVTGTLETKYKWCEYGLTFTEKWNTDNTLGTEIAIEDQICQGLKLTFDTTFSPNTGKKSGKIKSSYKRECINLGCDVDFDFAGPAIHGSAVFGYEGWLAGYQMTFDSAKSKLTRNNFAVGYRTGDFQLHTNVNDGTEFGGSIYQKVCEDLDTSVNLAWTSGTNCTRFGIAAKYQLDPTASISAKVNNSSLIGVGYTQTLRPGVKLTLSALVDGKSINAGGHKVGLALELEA
# Method: Given the interactions between erastin and VDAC using affinity-based target identification and VDAC functional assays, the direct binding of erastin to VDACs was investigated.
# VDAC2 protein was isolated from E. coli using a modified version of the protocol originally described by Koppel et al. Bacterial cultures were grown in LB containing 50 mg/L ampicillin to an OD of 0.6, and induced using […] IPTG overnight. Cultures were harvested by centrifugation at 6000×g for 10 min. The pellet was then washed with dH2O and resuspended in buffer (20% sucrose, 20 mM Tris, pH 8.0, […] lysozyme) and incubated at 25° C. for 10 minutes. The lysate was then sonicated for 2×30 seconds and centrifuged at 15000×g for 20 minutes. The pellet was resuspended in resuspension buffer (4.5 M guanidine-HCl, 0.1M NaCl, 20 mM Tris, pH 8.0) and incubated for 1 hour at 25° C. The suspension was then centrifuged (20 minutes, 15000×g), and the supernatant was loaded on a NI-NTA Superflow column (Qiagen) pre-equilibrated with 5 volumes of resuspension buffer. The column was washed with 5 column volumes of resuspension buffer containing 10 mM imidazole. The protein was then eluted using resuspension buffer containing 225 mM imidazole. The eluate was dialysed against 0.1 M NaCl, 20 mM Tris, pH 8.0, and 2% LDAO (Fluka) overnight, and then concentrated via centrifugation to 4 mg/mL.
# To assay direct binding of erastin analogs, 40 μg of purified VDAC2 was resuspended in 100 μL of Binding Buffer (25 mM HEPES, pH 8.0, 0.1% BSA, 7 mM MgCl2, 15 mM NaCl), and incubated in the presence of 20 μM radiolabelled erastin A9 and erastin A9 or erastin A8 for 15 minutes. The mixture was then deposited onto Protran BA85 0.45 μM binding filters (Whatman) using vacuum filtration. The filter was rinsed 5 times with 1 mL wash buffer (25 mM HEPES, 0.1% BSA), and then incubated in 5 mL scintillation liquid (Cytoscint, MP Biomedicals). Radioactivity was detected on a LKB Wallac 1211 RACKBETA Liquid Scintillation Counter.
# [7] = test system: BJ-TERT/LT/ST/RAS^V12 cells; assay: Alamar Blue viability assay; format: cell-based, human
# Method: (a) Calu-1 lung carcinoma cells harboring oncogenic KRAS were infected with lentivirus containing shRNAs targeting KRAS or GFP. Sequences of shRNAs are indicated by starting nucleotide (nt) in the KRAS mRNA coding sequence. Cells were treated with erastin and viability measured by Trypan Blue exclusion. (b) Knockdown of KRAS was confirmed by western blot. (c,d) A673 cells harboring oncogenic BRAF were infected with lentiviral shRNAs targeting BRAF exon 5 (c) or the 5′ UTR (d), luciferase (LUC) (c) or GFP (d). Cells were treated with erastin and viability measured using Alamar Blue (c) and Trypan Blue (d). (e) Knockdown of BRAF was confirmed by western blot. […] BJ-TERT/LT/ST/RAS^V12 cells were treated with erastin alone or in with a MEK inhibitor U0126 (20 μM), MEK inhibitor I (10 μM) or MEK 1/2 inhibitor (50 μM). After 48 h, viability was determined using Trypan Blue. (g) Structures of certain erastin and related analogs. (h) and (i) Dose-response curves were measured for erastin A3 and erastin B2 in BJ-TERT/LT/ST/RAS^V12 cells (black squares) or BJ-TERT cells (grey circles). (j) Calu-1 lung carcinoma cells harboring oncogenic KRAS were infected with lentivirus containing shRNAs targeting KRAS or GFP. Sequences of shRNAs are indicated by starting nucleotide (nt) in the KRAS mRNA coding sequence. Cells were treated with erastin and viability (y-axis) measured by Trypan Blue exclusion. Cells were treated with erastin for 24 hours, and percent inhibition of viability (y-axis) measured using Alamar Blue (k) and Trypan Blue (l). (m) Structures of erastin and related analogs. (n) Dose-response curves were measured for erastin A6, erastin B2, erastin A8 and erastin A9 in BJ-TERT/LT/ST/RAS^V12 cells (squares) or BJ-TERT cells (circles) using Alamar Blue.
# Alamar Blue metabolism: 10% Alamar Blue was added to assay plates, which were then incubated for an additional 16 hours. Red fluorescence, resulting from reduction of Alamar Blue, was detected on a Victor3 platereader (ex: 530, em: 590).
# Table 2. Activity of RAS-selective lethal compound erastin in tumor cell lines. IC50 values (ng/mL) are shown using the Alamar Blue viability assay. BJ engineered tumor cells express TERT, LT, ST, and oncogenic RAS. Isogenic RAS^V12 lacking cells are identical but lack HRAS^V12. BJ-DRD cells are derived from BJ cells and contain TERT, oncogenic RAS, a truncated from of p53 (p53DD) that disrupts the tetramerization of endogenous p53, a CDK4(R24C) mutant resistant to inhibition by p16INK4A and p151NK4B (the major negative regulators of CDK4) and cyclin D1. These latter protein substitute for LT. HCT-116, A549, Calu-1, and MIA PaCa-2 are tumor cells derived from cancers (colon, lung, lung and pancreatic, respectively) known to have activating mutations in RAS.
# [8] = test system: BJ-TERT/LT/ST/RAS^V12 cells; assay: Annexin V staining; format: cell-based, human; settings: camptothecin 1 μM
# Method: The percentage of cells in the indicated Ml region were 6%, 6%, and 38% in untreated, erastin-treated (9 μM), and camptothecin-treated (1 μM), respectively.
Compound,Cell death (%) [1],Effect on erastin-induced cell death [2],PARP1 cleavage [3],Direct binding to VDAC2 [6],further results
"COc1cc2c(cc1O)CC[C@@H]1[C@@H]2CC[C@]2(C)[C@@H](O)CC[C@@H]12 [2-ME, 2-methoxyestradiol]",66%,partially suppressed erastin-induced cell death,,,
"CN[C@@H]1C[C@H]2O[C@@](C)([C@@H]1OC)n1c3ccccc3c3c4c(c5c6ccccc6n2c5c31)C(=O)NC4 [staurosporine, reference compound]",,,cleaved from 110 kD to 85 kD,,Cytochrome c release from mitochondria [4]: released
"CCOc1ccccc1-n1c(C(C)N2CCN(C(C)=O)CC2)nc2ccccc2c1=O (centres unmarked) [erastin A8, 2-[1-(4-Acetyl-piperazin-1-yl)-ethyl]-3-(2-ethoxy-phenyl)-3H-quinazolin-4-one]",,,,"unlike the inactive erastin A8, directly binds VDAC2",Rate of NADH oxidation / permeability of outer mitochondrial membrane to NADH [5]: had no effect on mitochondrial membrane permeability; Selective lethality / activity of erastin analog ([7]; BJ-TERT/LT/ST/RAS^V12 cells versus BJ-TERT cells): inactive
"CC[C@@]1(O)C(=O)OCc2c1cc1n(c2=O)Cc2cc3ccccc3nc2-1 [camptothecin, reference compound]",,,degraded,,percentage of cells in M1 region (Annexin V staining) [8]: 38%
antimycin,51%,partially suppressed erastin-induced cell death,,,
"CCOc1ccccc1-n1c(C(C)N2CCN(C(=O)COc3ccc(Cl)cc3)CC2)nc2cc(NC(C)=O)ccc2c1=O (centres unmarked) [erastin A9, N-[2-(1-{4-[2-(4-chloro-phenoxy)-acetyl]-piperazin-1-yl}-ethyl)-3-(2-ethoxy-phenyl)-4-oxo-3,4-dihydro-quinazolin-7-yl]-acetamide]",,,,directly binds VDAC2,"pKd [6]: 6.95; pIC50 ([7]; Homo sapiens, BJ-TERT/LT/ST/RAS^V12 (BJELR) cells, read-out: IC50 (lethality)): 5.72"
